Test results as given in patent publication EP0546661A1, “Pyrimidine derivatives, method for preparation thereof and pharmaceutical composition having said derivatives as active elements” (JAPAN ENERGY CORPORATION, priority 1991, dated 1993).
pIC50: −log10 of the molar value. Read-outs that look alike come from different tables or passages of the source.

Key:
[1] = tested on: male SD rats; experiment: Carageenin induced paw edema; assay type: in vivo; settings: oral, 1 hour before carageenin, paw volume 3 hours after carageenin, suppression of edema forming rate
Experimental: The test compounds were orally administered to male SD rats, 10 per a group, which were fasted for 24 hours prior to the administration, and after one hour, 0.1 ml of 1% λ-carageenin (Picnin A, Zushi Chemical Co., Ltd.) in saline was injected subcutaneously into the right hind paw. The paw volumes were measured plethysmographically at before and 3 hours after the carageenin administration. Defining the paw volume before the injection of the λ-carageenin as the basal volume, the edema forming rates were calculated by the following equation. Edma Forming Rate(%) =((Paw volume after carageenin injection) - (Paw volume before carageenin injection))/(Paw volume before carageenin injection)x 100 [formula]
Compounds shown in the examples 1 -3 and 5 were tested and diclofenac was used as controls.

[2] = tested on: male SD rats; experiment: Ulcer forming activity; assay type: in vivo; settings: oral 10 mg/kg once daily for 5 days; 10 rats per group; stomach ulcers observed after 24 hours fasting
Experimental: The test compounds were orally administered to male SD rats, 10 per a group, at the dosage of 10 mg/kg, once daily for 5 days. After the final administration, rats were fasted for 24 hours and killed by blood releasing under ether anesthesia. The stomachs were taken out and the presence of ulcers were observed.
The same experiments were done with control compounds, E-5110 [Arznein Forsch. Drug Res., 37, 930 (1987), ibid, 37, 936 (1987)] abd diclofenac.

[3] = tested on: bronchis of Hartle guinea pigs; experiment: Dilating action of bronchia by Schultz-dale reaction
Experimental: The specimens were prepared by removing the bronchis of Hartle guinea pigs after sensitizing them with egg white albumin and terminating them by blood releasing under ether anesthesia. Each specimen was hanged down in the Magnus vessel filled with Tyrode's solution (saturated with gas composed of 95% oxygen and 5% carbon dioxide by bubbling at pH 7.4 and at […]). A tension of 1g was loaded to the specimen. After the tension became constant, histamine was added to the final concentration of 2 x 10⁻⁷ g/ml to cause the specimen to contract. The specimen was taken out from the vessel, washed thoroughly and hanged down in a different Magnus vessel filled with egg white albumin, of which final concentration was 1 x 10⁻⁵ g/ml, to cause the specimen to contract. […] As a control, theophylline in 0.1% dimethylsulphoxide aqueous solution was used. The efficacy of the test compounds was described by the suppression rate, in percentage, calculated from the contraction value obtained after the addition of the test compound, defining the contraction value caused by the egg white albumin before the addition of the test compound as 100 %.

[4] = Scavenging activity of hydroxy radicals (linolenic acid peroxidation, absorbance at 234 nm); assay type: biochemical; settings: test compound concentration 10 µM
Experimental: Scavenging activity of hydroxy radicals were confirmed according to the method of Kharasch et al. [J. Biol. Chem., 260, 106452 (1985)]. The method is as follows. The reactions were started by adding 80 µM iron chloride (II) to the reaction mixture containing test compounds, 30 mM sodium chloride, 1.0 mM linolenic acid, 0.08% rubrol and 100 µM hydrogen peroxide in 1% N,N-dimethylformamide aqueous solution. The time course of peroxidation reaction caused by the action of hydroxy radicals to linolenic acid were monitored by measuring the change of absorbance at 234 nm reflecting the generation of conjugate double bond, and thus the disappearance of the hydroxy radicals by test compounds was measured. The reaction suppression rates of test compounds at their concentration of 10 µM were calculated and the values are listed in Table 5 below.

[5] = tested on: male mongolian gerbils; experiment: Brain edema (carotid artery occlusion and re-perfusion); assay type: in vivo; settings: 2 mg/kg intraperitoneally 15 minutes before occlusion; 3 hours ischemia, 3 hours re-perfusion; 6 per group
Experimental: The total left carotid artery of male mongolian gerbils were separated from surrounding tissues and exposed under the Halosen anesthesia, and when awakened from the anesthesia, the total left carotid arteries were occuled by a aneurysm forming clip. […] The next day, the total left caroted artery of the selected animals, 6 per a group, were re-exposed under the Halosen anesthesia, and when these animals were awakened, the test compounds were administered intraperitoneally (2 mg/kg), followed by occluding the left total carotid artery by a aneurysm forming clip 15 minutes after the administration. After 3 hours ischemla, the clips were removed to re-perfusion. The animals were guillotined at 3 hours after the re-perfusion, immediately followed by removing out the brains, separated their left and right parts at its median line and measured each brain weights. The brains were dried in the dry heat sterilizer at 100°C for 3 days, and measured each brain weights.
Here, for the comparison, experiments with only surgical operations and stitchings were done as a operation only group, and experiments with only surgical operations, clip blockigs and stitchings and without the administration of the test compounds were done as a control group.

[6] = tested on: SD rats; experiment: Repeated administration toxicity in SD rats; assay type: in vivo; settings: 500 mg/kg, repeatedly for 2 weeks
From the text: Theophylline is known to have high toxicity and its LD₅₀ is about […] in rat. […]

[7] = tested on: rat; settings: cited from earlier work

SMILES	Suppression Rate (%) ([1]; dose 2 mg/kg)	Ulcer Cases [2]	pIC50 ([3]; Cavia porcellus)	Suppression Rate (%) [4] [%]	further results
CC(C)(C)c1cc(C=C2C(=O)N(C3CCCCC3)C(=O)N(C3CCCCC3)C2=O)cc(C(C)(C)C)c1O [Example 3, 1,3-dicyclohexyl-5-(3,5-di-tert-butyl-4-hydroxybenzylidene)-pyrimidine-2,4,6-trione]	11	1/10	4.24	–	–
CCN1C(=O)C(=Cc2cc(C(C)(C)C)c(O)c(C(C)(C)C)c2)C(=O)N(CC)C1=O [Example 2, 1,3-diethyl-5-(3,5-di-tert-butyl-4-hydroxybenzylidene)-pyrimidine-2,4,6-trione]	32	–	4.17	15	–
Cc1ccc(N2C(=O)C(=Cc3cc(C(C)(C)C)c(O)c(C(C)(C)C)c3)C(=O)N(c3ccc(C)cc3)C2=O)cc1 [Example 7, 1,3-di-p-tolyl-5-(3,5-di-tert-butyl-4-hydroxybenzylidene)-pyrimidine-2,4,6-trione]	–	–	4.41	60	water contents, Normal Side [5]: 79.64 ± 0.09; water contents, Occlusion Side [5]: 79.94 ± 0.33
CN1C(=O)C(=Cc2cc(C(C)(C)C)c(O)c(C(C)(C)C)c2)C(=O)N(c2ccccc2)C1=O [Example 1, 1-methyl-3-phenyl-5-(3,5-di-tert-butyl-4-hydroxybenzylidene)-pyrimidine-2,4,6-trione]	48	0/10	4.30	59	abnormal symptoms [6]: no abnormal symptoms were observed
CC(C)(C)c1cc(C=C2C(=O)NC(=O)N(C3CCCCC3)C2=O)cc(C(C)(C)C)c1O [Example 5, 1-cyclohexyl-5-(3,5-di-tert-butyl-4-hydroxybenzylidene)-pyrimidine-2,4,6-trione]	24	0/10	4.23	31	–
CCCCN1C(=O)NC(=O)C(=Cc2cc(C(C)(C)C)c(O)c(C(C)(C)C)c2)C1=O [Example 4, 1-butyl-5-(3,5-di-tert-butyl-4-hydroxybenzylidene)-pyrimidine-2,4,6-trione]	–	0/10	4.37	18	–
Cn1c(=O)c2[nH]cnc2n(C)c1=O [Theophylline, reference compound]	–	–	–	–	LD₅₀ [7]: about 300 mixing; pIC50 ([3]; Cavia porcellus, suppression of egg white albumin (1 x 10⁻⁵ g/ml) induced contraction of sensitized guinea pig bronchi, read-out: IC50): 4.46
O=C(O)Cc1ccccc1Nc1c(Cl)cccc1Cl [Diclofenac, reference compound]	–	2/10	–	–	Suppression Rate (%) ([1]; dose 10 mg/kg): 51%
CON1CC/C(=C\c2cc(C(C)(C)C)c(O)c(C(C)(C)C)c2)C1=O [Example E-5110, reference compound]	–	3/10	–	–	–
CC(C)(C)c1cc(C=C2C(=O)NC(=O)N(c3ccccc3)C2=O)cc(C(C)(C)C)c1O [Example 6, 1-phenyl-5-(3,5-di-tert-butyl-4-hydroxybeniylidene)-pyrimidine-2,4,6-trione]	–	0/10	–	25	pIC50 ([3]; suppression of egg white albumin (1 x 10⁻⁵ g/ml) induced contraction of sensitized guinea pig bronchi, read-out: IC50): 4.36
